According to US20210204580A1, “ORGANIC COMPOUNDS” (Givaudan SA, priority 2018, published 2021):

Tests used:
[1] = off-note masking in consumables containing non-animal derived protein (general statements)
[2] = Potato protein solution taste description; conditions: 3 wt % potato protein solution + 14 ppt ethyl cyclohexanoate; Sample A without it: earthy, musty, fishy, bitter
Method: An aqueous potato protein solution comprising 3 weight % potato protein (Solanic™ 200 by Avebe) was prepared (Sample A).

CCOC(=O)C1CCCCC1 [ethyl cyclohexanoate]
effect on off-note attributes ([1]; higher concentrations, 50 ppt or more): provides a significant effect on several off-note attributes, but in addition confers some fruity notes
off-note masking result ([1]; up to 20 ppt (e.g. 0.5 ppt to about 15 ppt) added to a consumable comprising about 3 wt % non-animal derived protein): good results
masking of off-notes ([1]; use around its odor detection threshold, about 0.5 ppt (ng/L) to about 20 ppt (ng/L)): provides the masking of certain off-notes
taste description [2]: earthy, potato-like, but no fishy, bitter taste attributes have been noticed
